Experimental data: patent US10597388B2, “Pyridazinone herbicides” (FMC CORPORATION, priority 2014, dated 2020)

Key:
Assay in all cases: Test D controlled growth environment herbicide test, pre- and postemergence
Type in all cases: in vivo
[1] = test system: Russian thistle (Salsola kali)
Summary of the method: (§1)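 Rating is visual, 0–100 scale (100 = complete control), made against untreated plants 14–21 d after treatment in controlled growth conditions. Postemergence sprays went onto 1- to 4-leaf plants in peat medium; preemergence sprays onto silt loam after sowing; formulation included a surfactant.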

[2] = test system: blackgrass (Alopecurus myosuroides)
Summary of the method: as §1

[3] = test system: bromegrass, downy (downy bromegrass, Bromus tectorum)
Summary of the method: as §1

[4] = test system: buckwheat, wild (wild buckwheat, Polygonum convolvulus)
Summary of the method: as §1

[5] = test system: chamomile (scentless chamomile, Matricaria inodora)
Summary of the method: as §1

[6] = test system: field violet (Viola arvensis)
Summary of the method: as §1

[7] = test system: galium (catchweed bedstraw, Galium aparine)
Summary of the method: as §1

kochia (Kochia scoparia) = test system: kochia (Kochia scoparia)
Summary of the method: as §1

[8] = test system: lambsquarters (Chenopodium album)
Summary of the method: as §1

[9] = test system: oat, wild (wild oat, Avena fatua)
Summary of the method: as §1

[10] = test system: oilseed rape (Brassica napus)
Summary of the method: as §1

[11] = test system: pigweed (Amaranthus retroflexus)
Summary of the method: as §1

[12] = test system: speedwell (bird's-eye speedwell, Veronica persica)
Summary of the method: as §1

[13] = Postemergence, 31 g ai/ha, scale 0 to 100 (0 no effect, 100 complete control)
[14] = Postemergence, 125 g ai/ha, visual rating on scale 0 (no effect) to 100 (complete control), 14 to 21 d
[15] = Postemergence, 250 g ai/ha, scale 0 to 100 (0 no effect, 100 complete control)
[16] = Preemergence, 62 g ai/ha, scale 0 to 100 (0 no effect, 100 complete control)
[17] = Preemergence, 125 g ai/ha, scale 0 to 100 (0 no effect, 100 complete control)
[18] = Preemergence, 250 g ai/ha, scale 0 to 100 (0 no effect, 100 complete control)
[19] = postemergence, 62 g ai/ha, scale 0 to 100, 0 no effect, 100 complete control

With `CC(=O)Oc1c(C)nn(C)c(=O)c1-c1c(C)sc2ccc(C)cc12` [Compound 25] the “Russian Thistle plant response rating” value [1, 13] was 70, the “Plant response rating, Russian Thistle” value [1, 14] was 80 and the “Plant response rating, Russian Thistle” value [1, 15] was 90. For the same compound, the “Plant response rating (scale of 0 to 100), Russian Thistle” value ([1]; Preemergence, 31 g ai/ha) was 10, the “Plant response rating, Russian Thistle” value [1, 16] was 25 and the “Plant response rating, Russian Thistle” value [1, 17] was 40. The “Plant response rating, Russian Thistle” value [1, 18] was 90, the “Plant response rating, Russian Thistle” value [1, 19] was 75 and the “Blackgrass plant response rating” value [2, 13] was 65. The “Plant response rating, Blackgrass” value [2, 14] was 80, the “Plant response rating, Blackgrass” value [2, 15] was 80 and the “Plant response rating (scale of 0 to 100), Blackgrass” value ([2]; Preemergence, 31 g ai/ha) was 85. For the same compound, the “Plant response rating, Blackgrass” value [2, 16] was 90, the “Plant response rating, Blackgrass” value [2, 17] was 90 and the “Blackgrass plant response rating” value [2, 18] was 95. For the same compound, the “Plant response rating, Blackgrass” value [2, 19] was 75, the “Bromegrass, Downy plant response rating” value [3, 13] was 5 and the “Plant response rating, Bromegrass, Downy” value [3, 14] was 50. The “Plant response rating, Bromegrass, Downy” value [3, 15] was 65, the “Plant response rating (scale of 0 to 100), Bromegrass, Downy” value ([3]; Preemergence, 31 g ai/ha) was 40 and the “Plant response rating, Bromegrass, Downy” value [3, 16] was 65. The “Plant response rating, Bromegrass, Downy” value [3, 17] was 80, the “Plant response rating, Bromegrass, Downy” value [3, 18] was 85 and the “Plant response rating, Bromegrass, Downy” value [3, 19] was 25. The “Buckwheat, Wild plant response rating” value [4, 13] was 80, the “Plant response rating, Buckwheat, Wild” value [4, 14] was 100 and the “Plant response rating, Buckwheat, Wild” value [4, 15] was 100. The “Plant response rating (scale of 0 to 100), Buckwheat, Wild” value ([4]; Preemergence, 31 g ai/ha) was 0, the “Plant response rating, Buckwheat, Wild” value [4, 16] was 0 and the “Plant response rating, Buckwheat, Wild” value [4, 17] was 20. For the same compound, the “Plant response rating, Buckwheat, Wild” value [4, 18] was 25, the “Plant response rating, Buckwheat, Wild” value [4, 19] was 100 and the “Chamomile plant response rating” value [5, 13] was 75. The “Plant response rating, Chamomile” value [5, 14] was 100, the “Plant response rating, Chamomile” value [5, 15] was 100 and the “Plant response rating (scale of 0 to 100), Chamomile” value ([5]; Preemergence, 31 g ai/ha) was 100. For the same compound, the “Plant response rating, Chamomile” value [5, 16] was 100, the “Plant response rating, Chamomile” value [5, 17] was 100 and the “Plant response rating, Chamomile” value [5, 18] was 95. The “Plant response rating, Chamomile” value [5, 19] was 95, the “Field Violet plant response rating” value [6, 13] was 65 and the “Plant response rating, Field Violet” value [6, 14] was 85. The “Plant response rating, Field Violet” value [6, 15] was 95, the “Plant response rating (scale of 0 to 100), Field Violet” value ([6]; Preemergence, 31 g ai/ha) was 90 and the “Plant response rating, Field Violet” value [6, 16] was 100. For the same compound, the “Plant response rating, Field Violet” value [6, 17] was 100, the “Plant response rating, Field Violet” value [6, 18] was 100 and the “Plant response rating, Field Violet” value [6, 19] was 75. For the same compound, the “Galium plant response rating” value [7, 13] was 100, the “Plant response rating, Galium” value [7, 14] was 100 and the “Plant response rating, Galium” value [7, 15] was 100. The “Plant response rating (scale of 0 to 100), Galium” value ([7]; Preemergence, 31 g ai/ha) was 70, the “Plant response rating, Galium” value [7, 16] was 90 and the “Plant response rating, Galium” value [7, 17] was 95. The “Plant response rating, Galium” value [7, 18] was 100, the “Plant response rating, Galium” value [7, 19] was 100 and the “Kochia plant response rating” value (kochia (Kochia scoparia); [13]) was 90. The “Plant response rating, Kochia” value (kochia (Kochia scoparia); [14]) was 100, the “Plant response rating, Kochia” value (kochia (Kochia scoparia); [15]) was 100 and the “Plant response rating (scale of 0 to 100), Kochia” value (kochia (Kochia scoparia); Preemergence, 31 g ai/ha) was 0. For the same compound, the “Plant response rating, Kochia” value (kochia (Kochia scoparia); [16]) was 10, the “Plant response rating, Kochia” value (kochia (Kochia scoparia); [17]) was 40 and the “Plant response rating, Kochia” value (kochia (Kochia scoparia); [18]) was 100. The “Plant response rating, Kochia” value (kochia (Kochia scoparia); [19]) was 95, the “Lambsquarters plant response rating” value [8, 13] was 90 and the “Plant response rating, Lambsquarters” value [8, 14] was 90. The “Plant response rating, Lambsquarters” value [8, 15] was 95, the “Plant response rating (scale of 0 to 100), Lambsquarters” value ([8]; Preemergence, 31 g ai/ha) was 80 and the “Plant response rating, Lambsquarters” value [8, 16] was 95. For the same compound, the “Plant response rating, Lambsquarters” value [8, 17] was 98, the “Plant response rating, Lambsquarters” value [8, 18] was 100 and the “Plant response rating, Lambsquarters” value [8, 19] was 90. For the same compound, the “Oat, Wild plant response rating” value [9, 13] was 75, the “Plant response rating, Oat, Wild” value [9, 14] was 90 and the “Plant response rating, Oat, Wild” value [9, 15] was 90. For the same compound, the “Plant response rating (scale of 0 to 100), Oat, Wild” value ([9]; Preemergence, 31 g ai/ha) was 85, the “Plant response rating, Oat, Wild” value [9, 16] was 90 and the “Plant response rating, Oat, Wild” value [9, 17] was 95. The “Plant response rating, Oat, Wild” value [9, 18] was 100, the “Plant response rating, Oat, Wild” value [9, 19] was 80 and the “Oilseed Rape plant response rating” value [10, 13] was 5. For the same compound, the “Plant response rating, Oilseed Rape” value [10, 14] was 45, the “Plant response rating, Oilseed Rape” value [10, 15] was 60 and the “Plant response rating (scale of 0 to 100), Oilseed Rape” value ([10]; Preemergence, 31 g ai/ha) was 0. The “Plant response rating, Oilseed Rape” value [10, 16] was 0, the “Plant response rating, Oilseed Rape” value [10, 17] was 0 and the “Plant response rating, Oilseed Rape” value [10, 18] was 35. For the same compound, the “Plant response rating, Oilseed Rape” value [10, 19] was 30, the “Pigweed plant response rating” value [11, 13] was 80 and the “Plant response rating, Pigweed” value [11, 14] was 95. The “Plant response rating, Pigweed” value [11, 15] was 100, the “Plant response rating (scale of 0 to 100), Pigweed” value ([11]; Preemergence, 31 g ai/ha) was 100 and the “Plant response rating, Pigweed” value [11, 16] was 100. For the same compound, the “Plant response rating, Pigweed” value [11, 17] was 100, the “Plant response rating, Pigweed” value [11, 18] was 100 and the “Plant response rating, Pigweed” value [11, 19] was 100. The “Speedwell plant response rating” value [12, 13] was 10, the “Plant response rating, Speedwell” value [12, 14] was 25 and the “Plant response rating, Speedwell” value [12, 15] was 80. For the same compound, the “Plant response rating (scale of 0 to 100), Speedwell” value ([12]; Preemergence, 31 g ai/ha) was 35, the “Plant response rating, Speedwell” value [12, 16] was 80 and the “Plant response rating, Speedwell” value [12, 17] was 95. For the same compound, the “Plant response rating, Speedwell” value [12, 18] was 100 and the “Plant response rating, Speedwell” value [12, 19] was 15.
